The nature of the data set: gradient 5% acetonitrile 3 min, to 50% in 2 min, to 85% in 15 min, held 3 min, 100 µL/min. Conditions: column: Zorbax Extend-C18 2.1 x 50 mm; eluents: water / acetonitrile, 0.1% formic acid. The method in brief: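 Retention times come from adduct peaks that were picked computationally and then checked by hand. The standards, pure and pooled in mixtures of ~100 molecules, were run on a Zorbax Extend-C18 column (2.1 × 50 mm, 1.8 μm) at 100 μL/min with water and acetonitrile, each with 0.1% formic acid. Detection was by quadrupole time-of-flight mass spectrometry in positive and negative ionization mode, with a dead volume of 40 μL and a dwell volume of 900 μL.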
With `COc1ccc(CC(=O)N2CCC3(CC2)NC(=O)c2cc(F)ccc2N3C)cc1`, the RP-LC retention time came out at 768 s.
`CN(C)CCNC(=O)Cn1ncn2nc(-c3ccccc3)cc2c1=O` gave an RP-LC retention time of 620 s.
The molecule `CCn1cnc2ccc(-c3noc(-c4cc(OC)cc(OC)c4)n3)cc21` gave an RP-LC retention time of 797 s.
The molecule `Cc1ccc(N2CCC(NC(=O)Nc3ccccc3C(F)(F)F)C2=O)cc1` (stereo unspecified) returned an RP-LC retention time of 898 s.
The molecule `Cc1cc(C)cc(OCCNC(=O)Nc2cc(F)ccc2F)c1` returned an RP-LC retention time of 992 s.
In turn, `O=C(C1=CN(c2cccc(Cl)c2)c2ccccc2S1(=O)=O)N1CCCC1` yielded an RP-LC retention time of 814 s.
Consider `Cc1ccc(N2CC(c3noc(-c4cccc(Cl)c4)n3)CC2=O)cc1` (stereo unspecified), for which the RP-LC retention time came to 1090 s.
Turning to `CCn1cc(-c2nc(CC(=O)Nc3cc(C)ccc3F)cs2)c2cccnc21`, the RP-LC retention time was 1040 s.
`Cc1ncoc1C(=O)N1CCC(C2CCN(S(C)(=O)=O)CC2)C1` (stereo unspecified) registered an RP-LC retention time of 642 s.
As to `Cn1nc(C(=O)N2CCCCC2)c2c1CCN(C(=O)CCC(=O)NCCCN1CCCCC1)C2`, the RP-LC retention time was determined as 579 s.
The molecule `CCc1ccc(NC(=O)c2cn(-c3cc(-c4nc(CC)no4)ccn3)cn2)cc1` registered an RP-LC retention time of 939 s.
Then `CCc1ccc(C(O)CN2CCN(c3ccccn3)CC2)cc1` (stereo unspecified), with 572 s; and `CCCNc1cc(N2CCC(CCC(=O)NCc3ccccc3Cl)CC2)ncn1`, with 718 s; and `Cc1cccc(NC(=O)N2CCCC2c2nc(-c3ccccc3)no2)c1C` (stereo unspecified), with 977 s.
In turn, `O=C(c1nc(-c2ccc(Cl)cc2)n2c1CCCCC2)N1CCN(c2ncccn2)CC1` came in with an RP-LC retention time of 767 s.
As to `Cn1c(C(=O)N2CCCC(C(=O)N3CCc4ccccc4C3)C2)cc2sccc21` (stereo unspecified), the RP-LC retention time came out at 925 s.
Take `Clc1ccc(-c2ccc(CNCC3CCCO3)o2)c(Cl)c1` (stereo unspecified): the RP-LC retention time amounted to 738 s.
In the case of `O=C(Nc1ccc(N2CCCN(C(=O)C3CC3)CC2)cc1)c1ccc(=O)[nH]c1`, the RP-LC retention time was 595 s.
As to `O=S(=O)(NCc1nnnn1-c1ccc(Cl)cc1)c1ccc2c(c1)OCCO2`, the RP-LC retention time amounted to 773 s.
Molecule `Cn1nnnc1SCC(=O)Nc1nc2c(s1)C(=O)CCC2` yielded an RP-LC retention time of 607 s.
As for `CCCCNC(=O)Cc1c(C)nn(-c2nc(-c3ccc(F)cc3)cs2)c1C`, the figure is 1070 s; as for `O=c1c2sccc2n(Cc2nc(-c3ccc(Br)cc3)no2)c(=O)n1-c1cccc(F)c1`, 1070 s; as for `CCn1c(C(=O)N2CCN(Cc3ccccc3)CC2)cc2c(-c3cccs3)nn(-c3ccccc3)c21`, 819 s.
Take `Cn1c(C(=O)NCc2ccccn2)cc2c(=O)oc3ccccc3c21`: the RP-LC retention time was determined as 607 s.
Take `C=CCN1CC[C@]2(C)c3cc(O)ccc3CC1[C@@H]2C`: the RP-LC retention time was found to be 594 s.
Molecule `CCN(CC)C(=O)c1ccc2oc(CN3CCN(C(=O)NC(C)(C)C)CC3)nc2c1` showed an RP-LC retention time of 628 s.
As for `CC(C)C(=O)NCCc1csc(C2CCN(C(=O)NC(C)(C)C)CC2)n1`, the figure is 681 s; as for `CCNC(=O)CN1C(=O)CCSc2ccccc21`, 664 s.
On to `C=CCNC(=O)c1cc(=O)[nH]c2c(Cl)cccc12`, for which the RP-LC retention time is 641 s.
In the case of `COc1ccc(NC(=O)C2CCN(S(C)(=O)=O)c3ccccc3O2)cc1Cl` (stereo unspecified), the RP-LC retention time turned out to be 921 s.
`CCN1CCN(c2ccc(-c3ccc(OC)c(S(=O)(=O)N4CCCC4)c3)nn2)CC1` yielded an RP-LC retention time of 606 s.
In turn, `Cn1cnc2ccc(-c3noc(CNS(=O)(=O)c4ccccc4)n3)cc21` came in with an RP-LC retention time of 739 s.
Molecule `O=C(Cn1ccn2nc(-c3ccccc3)c(CO)c2c1=O)Nc1ccc2c(c1)CCC2` had an RP-LC retention time of 906 s.
As for `CCOc1ccc(-c2cn3ccn(-c4ccc(Cl)cc4)c(=O)c3n2)cc1`, the figure is 962 s; as for `CC(CCc1ccco1)NC(=O)C1CCN(c2nc(-c3ccc(Cl)cc3)no2)CC1` (stereo unspecified), 1080 s; as for `CO[C@H]1C(=O)N(C2CCN(S(=O)(=O)C(C)C)CC2)[C@H]1c1ccncc1`, 569 s.
`O=c1n(Cc2ccccc2)nc2c(S(=O)(=O)N3CCCCC3)cccn12` came in with an RP-LC retention time of 647 s.
For the molecule `O=C(Nc1ccccc1)C1CCCN(c2nnc3ccc(Cl)cn23)C1` (stereo unspecified), the RP-LC retention time came to 753 s.
On to `CCC(=O)n1nc(-c2cccc(C)c2)nc1N`, for which the RP-LC retention time came to 890 s.
In turn, `Cc1noc(C2CN(C(=O)Nc3cc(Cl)ccc3C)CC23CCOCC3)n1` (stereo unspecified) displayed an RP-LC retention time of 760 s.
The molecule `CN(C)c1ccc(C(=O)Nc2cc(-c3cccs3)no2)cc1` returned an RP-LC retention time of 972 s.
As for `Cc1ccc(CNC(=O)C2(C)CN(S(C)(=O)=O)CC(=O)N2CCCc2ccccc2)cc1` (stereo unspecified), the figure is 927 s; as for `COC(=O)c1ccc(NC(=O)CN2CCC(c3nc(-c4cccs4)no3)CC2)cc1`, 621 s.
`CCOC(=O)c1c(C)[nH]c(C(=O)N2CCCC(C(=O)NCCCN3CCCCCC3)C2)c1C` (stereo unspecified) registered an RP-LC retention time of 624 s.
Regarding `COc1ccc(C2CC(=O)N(c3ccc(F)c(C)c3)C(=O)C2)cc1`, the RP-LC retention time is 930 s.
The molecule `Cc1ccc(S(=O)(=O)Nc2ccc3c(c2)CCC(=O)N3C)cc1Cl` yielded an RP-LC retention time of 1000 s.
With `Cc1ccc(-c2cc(=O)n3c4ccccc4n(CC(=O)NC4CCCC4)c3n2)cc1`, the RP-LC retention time was 942 s.
`O=C(Cn1cccc1-c1nnc(C2CC2)o1)NCc1cccc(Br)c1` displayed an RP-LC retention time of 869 s.
Turning to `CCCN1C(=O)C(NC(=O)c2ccc(F)cc2)(C(F)(F)F)C2=C1CC(C)(C)CC2=O` (stereo unspecified), the RP-LC retention time came out at 952 s.
In the case of `O=C(Cn1ccn2nc(-c3ccccc3)c(CO)c2c1=O)Nc1cccc(Br)c1`, the RP-LC retention time was 868 s.
As for `CCCCC(CC)C(=O)Nc1nc(-c2ccc(C(C)C)cc2)cs1` (stereo unspecified), the figure is 1390 s; as for `Cc1ccc(-n2nc(CO)c(C(=O)NC3CCCC3)n2)cc1`, 1030 s.
Molecule `CCN(CC)C(=O)N[C@@H]1C[C@@H]2c3cccc4[nH]cc(c34)C[C@H]2N(C)C1` returned an RP-LC retention time of 684 s.
With `COc1cccc(-c2nc(Cn3cnc4ccccc4c3=O)no2)c1OC`, the RP-LC retention time amounted to 802 s.
Take `O=C(NCCc1ccccc1)C1CCN(c2cc(N3CCCCC3)ncn2)CC1`: the RP-LC retention time stood at 685 s.
For the molecule `CCOc1ccc(C2Cn3nnc(-c4nc(C5CCCCC5)no4)c3CO2)cc1` (stereo unspecified), the RP-LC retention time was determined as 1290 s.
`CCOC(=O)Cc1csc(NC(=O)C2CCN(c3cc(-n4ccnc4)ncn3)CC2)n1` gave an RP-LC retention time of 576 s.
In turn, `CCCn1cnc2cc(-c3noc(CNC(=O)Cc4ccccc4)n3)ccc21` registered an RP-LC retention time of 659 s.
In turn, `Cc1cc2c(F)c(Oc3ncnn4cc(OC[C@@H](C)OC(=O)[C@H](C)N)c(C)c34)ccc2[nH]1` returned an RP-LC retention time of 746 s.
`O=C(Nc1cc(-c2cccs2)no1)C1CC1` displayed an RP-LC retention time of 803 s.
In the case of `O=C(Cc1csc(Nc2ccc(Cl)cn2)n1)N1CCCc2ccccc21`, the RP-LC retention time was determined as 919 s.
As to `O=c1n(CCc2ccccc2)nc2ccc(S(=O)(=O)N3CCCC3)cn12`, the RP-LC retention time was 868 s.
The molecule `Cc1ccc(C)c(CNC(=O)c2ccc(-c3cccnc3)nc2)c1` had an RP-LC retention time of 722 s.
Take `O=S(=O)(c1cccnc1)N1CCCC(c2nnc(C(F)(F)F)o2)C1` (stereo unspecified): the RP-LC retention time came to 747 s.
In turn, `CN(C)C(=O)C1CCN(c2nc3ccc(-c4ccccc4)nc3s2)CC1` displayed an RP-LC retention time of 888 s.
As for `CCCN1C(=O)c2ccccc2C(C(=O)N2CCOCC2)C1c1cc(OC)c(OC)c(OC)c1` (stereo unspecified), the figure is 684 s.
Then `CCCNS(=O)(=O)c1cc2c(cc1C)CCN2C(C)=O`, with 641 s; and `O=C(c1cc(Cl)ccc1Cl)N1CCN(c2cc(-c3cccs3)[nH]n2)CC1`, with 870 s; and `CCOC(=O)Cc1csc(NC(=O)Cn2nc3c(cc2=O)CCCC3)n1`, with 718 s.
Then `COc1ccc(CCNC(=O)CN2C(=O)CSc3cccn3-c3ccccc32)cc1OC`, with 831 s; and `COc1ccc(C(=O)N(CN2CCCC2=O)c2nccs2)cc1OC`, with 647 s; and `Cc1ccc(CN2CCC(n3c(C)cnc3-c3cccnc3)C2)s1` (stereo unspecified), with 546 s.
For `CCOc1cc(=O)n2c(c1C(=O)Nc1ccc(F)cc1F)CCCC2`, the RP-LC retention time stood at 726 s.
As for `CCOCC(=O)N1CC(F)(F)C[C@H]1c1nc(COC)no1`, the figure is 675 s.
As for `O=C(Nc1ccccc1Br)N[C@@H]1CCN(c2ccc(C(F)(F)F)cn2)C1`, the figure is 937 s; as for `COCC1(O)CCOC2(CCN(C(=O)C3CCCCC3)CC2)C1` (stereo unspecified), 656 s; as for `CCCNC(=O)Nc1ccc(C)cc1C`, 827 s.
As for `Cc1ccc(Cl)cc1N1CCN(c2cc(C(=O)O)c3cc(NC(=O)C(C)(C)C)ccc3n2)CC1`, the figure is 830 s; as for `COc1ccc2c(c1)C1(CCN(S(=O)(=O)c3ccc(C)cc3)C1)C(=O)N2C` (stereo unspecified), 929 s.
In turn, `Cc1ccc(-c2nnc(-c3nn(C)c4c3CN(S(=O)(=O)c3cccc(C)c3)CC4)o2)cc1` returned an RP-LC retention time of 998 s.
In turn, `COc1ccc(Cl)cc1S(=O)(=O)N1CCC(C(=O)Nc2ccccc2)CC1` displayed an RP-LC retention time of 913 s.

The values are drawn from the METLIN SMRT retention time set (Domingo-Almenara et al. 2019).
